Assay results from patent publication US20020010341A1, “Use of thioamide oxazolidinones for the treatment of bone resorption and osteoporosis” (priority 2000, published 2002).

Tests used:
Assay type in all cases: in vivo
rats [1] = test: 4-week oral toxicity study in rats with 4 and 8 week recovery
Procedure: (§1) The toxicity of the compound of Example 2 was evaluated in rats treated orally with 30, 60, 120, or 200 mg/kg/day of the compound of Example 2, water, or vehicle (containing 80% propylene glycol, 5% cremophor, and 30-mg/ml povidone) for 4 weeks given in 2 divided doses at 8 hours apart. Reversibility of drug-induced changes was determined 4 and 8 weeks following drug withdrawal. The pathogenesis of the bone changes was evaluated in a study in rats treated with 200 mg/kg/day for 3 or 7 days. TGF-betal protein levels in bone marrow supernatants and serum were determined using ELISA at the end of each of the dosing period. Toxicity was evaluated using clinical, hematological, biochemical, and pathologic end points.

rats [2] = test: Pathogenesis of the bone changes, rats treated for 3 or 7 days; conditions: oral
Procedure: as §1

TGF-betal protein = TGF-betal protein levels in bone marrow supernatants and serum by ELISA; conditions: rats
Procedure: as §1

Compound: CC(=S)NC[C@H]1CN(c2ccc(N3CC[S+]([O-])CC3)c(F)c2)C(=O)O1 [Example 2, (S)-N-[[3-[3-Fluoro-4-(4-thiomorpholinyl)phenyl] -2-oxo-5-oxazolidinyl]methyl]thio-acetamide, thiomorpholine S-oxide]
- persistence of newly formed bone spicules after drug withdrawal (rats [1]; 4 and 8 weeks after drug withdrawal): still present after 4 and 8 weeks of drug withdrawal
- bone marrow changes (rats [1]; oral): did not show changes other than hypocellularity related to hematopoietic suppression
- bone mass and density of trabecular (spongy) bone of sternum, femur/tibia, vertebrae, basal cranium (rats [1]; oral, 120 and 200 mg/kg/day): caused an increase in bone mass and density (hyperostosis)
- endosteal cortical bone formation (rats [1]; oral, 120 and 200 mg/kg/day): occurred rarely
- toxic effects (rats [1]; oral, 120 and 200 mg/kg/day): anorexia, weight loss, GI effects, hematopoietic suppression and lymphoid depletion
- marrow cavity histology at Day 28 (rats [1]; oral, Day 28): marrow cavities were traversed by abundant normal looking trabecular bone
- clinical tolerability (rats [1]; oral, all doses but 200 mg/kg/day (30, 60, 120 mg/kg/day), 4 weeks, 2 divided doses): well tolerated clinically
- onset of hyperostosis (osteoblast proliferation, osteoid deposition) (rats [2]; 200 mg/kg/day for 3 or 7 days): became evident by Day 7
- osseous changes on Day 3 (rats [2]; 200 mg/kg/day, Day 3): no significant osseous changes
- Serum TGF-beta I (TGF-betal protein; Day 3, ELISA): slightly but significantly decreased
- TGF-betal in marrow supernatants (TGF-betal protein; Day 3, ELISA): modestly but significantly increased
- TGF-betal in marrow supernatants (TGF-betal protein; Day 7 or 28, ELISA): not on Day 7 or 28
